Measurements from patent US20220334127A1, “IN VITRO METHOD FOR OBTAINING CLINICAL DATA IN PATIENTS SUFFERING FROM AN INFLAMMATORY DISEASE” (FUNDACIÓN PARA LA FORMACIÓN E INVESTIGACIÓN SANITARIAS DE …, priority 2019, published 2022).

Tested on: P2X7 receptor
Assay: Mitochondrial membrane depolarization (JC-10) after P2X7 receptor stimulation with ATP in monocytes and macrophages
Assay type: cell-based, mouse
Conditions: ATP 3 mM
Description: FIG. 5. P2X7 receptor induces mitochondrial membrane depolarization. (a) Mitochondrial membrane potential from blood monocytes stained with JC-10 in a control healthy donor (left), in a septic patient at day 1 (middle), and from healthy controls, abdominal surgery and septic patients at day 1 or 120 (right); PE^− cells represent the monocytes with mitochondrial depolarization. (b) Correlation between the percentage of monocytes with mitochondrial membrane depolarization and the quantification of P2X7 receptor MFI in monocytes from the septic patients; IC: immunocompromised septic patients. (c) Kinetics of mitochondrial depolarization after ATP (3 mM) stimulation of LPS-primed BMDMs incubated or not with the P2X7 receptor antagonist A438079 (10 μM). (d) Percentage of human monocytes from healthy donors with mitochondrial membrane depolarization after ATP (3 mM, 30 min) stimulation and incubated or not with the P2X7 receptor antagonist AZ11645373 (10 μM). […]
Mitochondrial membrane potential was measured using the JC-10 dye (Abcam) in BMDMs with a Sinergy Mx plate reader (BioTek) or by flow cytometry using the BD FACS Celesta flow cytometer (BD Biosciences), or in human monocytes (CD14^+ labelled with anti-CD14 APC-H7, clone MφP9, BD Biosciences) using FACS Canto (BD Biosciences), following the indications of manufacturer.

## Nc1ncnc2c1ncn2[C@@H]1O[C@H](COP(=O)(O)OP(=O)(O)OP(=O)(O)O)[C@@H](O)[C@H]1O [ATP, adenosine triphosphate]
  mitochondrial membrane depolarization by the agent itself: induced
